Reference: patent US20040018150A1, “Prodrugs of phosphonate nucleotide analogues and methods for selecting and making same” (priority 2003, published 2004)

Experiments:
[1] = test system: PLCE (porcine liver carboxyesterase); test: in vitro; format: in vitro ADME
Procedure: (§1) The in vitro metabolism and stability of separated diastereomers were determined in PLCE, MT-2 extract and human plasma. A biological sample listed below, 80 μL, was transferred into a screw-capped centrifuge tube and incubated at 37° C. for 5 min. A solution containing 0.2 mg/mL of the test compound in a suitable buffer, 20 μL, was added to the biological sample and mixed. The reaction mixture, 20 μL, was immediately sampled and mixed with 60 μL of methanol containing 0.015 mg/mL of 2-hydroxymethylnaphthalene as an internal standard for HPLC analysis. The sample was taken as the time-zero sample. Then, at specific time points, the reaction mixture, 20 μL, was sampled and mixed with 60 μL of methanol containing the internal standard. The mixture thus obtained was centrifuged at 15,000 G for 5 min and the supernatant was analyzed with HPLC under the conditions described below.
(1) PLCE (porcine liver carboxyesterase from Sigma, 160 u/mg protein, 21 mg protein/mL) diluted 20 fold with PBS (phosphated-buffered saline).
In the study for PLCE, the test compound was dissolved in PBS. PBS (phosphate-buffered saline, Sigma) contains 0.01 M phosphate, 0.0027 M potassium chloride, and 0.137 M sodium chloride. pH 7.4 at 37° C.
(§2) The HPLC analysis was carried out under the following conditions.

[2] = Stability / hydrolysis in MT-2 cell extract; format: in vitro ADME
Procedure: as §1
(2) MT-2 cell extract was prepared from MT-2 cells according to the published procedure [A. Pompon, I. Lefebvre, J.-L. Imbach, S. Kahn, and D. Farquhar, “Antiviral Chemistry & Chemotherapy”, 5:91-98 (1994)] except for using HEPES buffer described below as the medium.
In the study for MT-2 cell extracts, the test compound was dissolved in HEPES buffer. HEPES buffer contains 0.010 M HEPES, 0.05 M potassium chloride, 0.005 M magnesium chloride, and 0.005 M dl-dithiothreitol. pH 7.4 at 37° C.
as §2

[3] = Incubation of radiolabeled PMPA prodrugs or PMPA in human whole blood; metabolites in plasma, PBMCs and RBCs; format: in vitro ADME; details: for Metabolites (% of Total Peak Area): PMPA: human blood, 1 h
Procedure: After 1 hour, plasma, red blood cells (RBCs) and peripheral blood mononuclear cells (PBMCs) were isolated and analyzed by HPLC with radiometric detection.

[4] = Stability in human plasma; format: in vitro ADME
Procedure: as §1
(3) Human plasma (pooled normal human plasma from George King Biomedical Systems, Inc.)
In the study for human plasma, the test compound was dissolved in TBS. TBS (tris-buffered saline, Sigma) contains 0.05 M Tris, 0.0027 M potassium chloride, and 0.138 M sodium chloride. pH 7.5 at 37° C.
as §2

[5] = test system: MT-2 cells
[6] = Excretion and tissue distribution of radiolabelled prodrug in dogs; details: for % Dose / Conc.: dogs, oral 10 mg-eq. PMPA/kg
Procedure: Plasma and peripheral blood mononuclear cells (PBMCs) were obtained over the 24-hr period. Urine and feces were cage collected over 24 hr. At 24 h after the dose, the animals were sacrificed and tissues removed for analysis. Total radioactivity in tissues was determined by oxidation and liquid scintillation counting.

CC(C)OC(=O)OCOP(=O)(CO[C@H](C)Cn1cnc2c(N)ncnc21)OCOC(=O)OC(C)C.O=C(O)/C=C/C(=O)O [TDF, tenofovir disoproxil fumarate, reference compound]
PLCE hydrolysis product ([1]; 37° C., PBS pH 7.4): MonoPOC PMPA | PLCE hydrolysis rate t1/2 ([1]; pH 7.4): < 0.14 min | Stability T 1/2 MT-2 Cell Extract [2]: 70.7 min | MT-2 extract hydrolysis product ([2]; 37° C., HEPES buffer pH 7.4): monoPOC PMPA | MT-2 extract hydrolysis rate t1/2 ([2]; pH 7.4): 70.7 min | Metabolites (% of Total Peak Area): PMPApp [3]: 18% | Metabolites (% of Total Peak Area): PMPA ([3]; PBMC): 50% | Metabolites (% of Total Peak Area): PMPA ([3]; Plasma/FP): 11% | Metabolites (% of Total Peak Area): PMPA ([3]; RBC/FP): 93% | Human Plasma Stability (HP) product ([4]; 37° C., TBS pH 7.5): monoPOC PMPA | Stability T 1/2 Human Plasma ([4]; human, plasma): 0.41 min | Human Plasma Stability (HP) t1/2 ([4]; human, plasma, pH 7.5): 0.41 | CC50 [5]: 70 µM | % Dose ([6]; Abdominal fat, 24 h): 0.00% | Conc. ([6]; Abdominal fat, 24 h): 0.16 ug-eq/g | % Dose ([6]; Adrenal Gland, 24 h): 0.00% | Conc. ([6]; Adrenal Gland, 24 h): 1.90 ug-eq/g | % Dose ([6]; Axillary Lymph Nodes, 24 h): 0.00% | Conc. ([6]; Axillary Lymph Nodes, 24 h): 0.37 ug-eq/g | % Dose ([6]; Bile, 24 h): 0.00% | Conc. ([6]; Bile, 24 h): 9.63 ug-eq/g | % Dose ([6]; Bone Marrow, 24 h): 0.00% | Conc. ([6]; Bone Marrow, 24 h): 0.20 ug-eq/g | % Dose ([6]; Brain, 24 h): 0.00% | Conc. ([6]; Brain, 24 h): <LOD | % Dose ([6]; Cerebrospinal Fluid, 24 h): 0.00% | Conc. ([6]; Cerebrospinal Fluid, 24 h): <LOD | % Dose ([6]; Duodenum, 24 h): 0.49% | Conc. ([6]; Duodenum, 24 h): 4.96 ug-eq/g | % Dose ([6]; Eye (L + R), 24 h): 0.00% | Conc. ([6]; Eye (L + R), 24 h): 0.06 ug-eq/g | % Dose ([6]; Feces, collected over 24 hr): 40.96% | % Dose ([6]; Femoral Bone, 24 h): 0.00% | Conc. ([6]; Femoral Bone, 24 h): 0.08 ug-eq/g | % Dose ([6]; Gall bladder, 24 h): 0.00% | Conc. ([6]; Gall bladder, 24 h): 3.58 ug-eq/g | % Dose ([6]; Heart, 24 h): 0.03% | Conc. ([6]; Heart, 24 h): 0.46 ug-eq/g | % Dose ([6]; Ileum, 24 h): 0.01% | Conc. ([6]; Ileum, 24 h): 0.50 ug-eq/g | % Dose ([6]; Iliac Lymph Nodes, 24 h): 0.00% | Conc. ([6]; Iliac Lymph Nodes, 24 h): 0.51 ug-eq/g | % Dose ([6]; Inguinal Lymph Nodes, 24 h): 0.00% | Conc. ([6]; Inguinal Lymph Nodes, 24 h): 0.28 ug-eq/g | % Dose ([6]; Jejunum, 24 h): 1.34% | Conc. ([6]; Jejunum, 24 h): 3.01 ug-eq/g | % Dose ([6]; Kidney, 24 h): 4.58% | Conc. ([6]; Kidney, 24 h): 87.90 ug-eq/g | % Dose ([6]; Large Intestine, 24 h): 1.63% | Conc. ([6]; Large Intestine, 24 h): 5.97 ug-eq/g | % Dose ([6]; Liver, 24 h): 12.40% | Conc. ([6]; Liver, 24 h): 38.30 ug-eq/g | % Dose ([6]; Lungs, 24 h): 0.03% | Conc. ([6]; Lungs, 24 h): 0.53 ug-eq/g | % Dose ([6]; Mesenteric Lymph Nodes, 24 h): 0.00% | Conc. ([6]; Mesenteric Lymph Nodes, 24 h): 1.20 ug-eq/g | % Dose ([6]; PBMC): 0.00% | % Dose ([6]; Pancreas, 24 h): 0.00% | Conc. ([6]; Pancreas, 24 h): 0.57 ug-eq/g | % Dose ([6]; Pituitary Gland, 24 h): 0.00% | Conc. ([6]; Pituitary Gland, 24 h): 0.23 ug-eq/g | Conc. ([6]; Plasma at 0.25 h): 3.68 ug-eq/g | % Dose ([6]; Plasma at 24 h): 0.00% | Conc. ([6]; Plasma at 24 h): 0.20 ug-eq/g | % Dose ([6]; Prostate, 24 h): 0.00% | Conc. ([6]; Prostate, 24 h): 0.23 ug-eq/g | % Dose ([6]; Salivary Gland (L + R), 24 h): 0.00% | Conc. ([6]; Salivary Gland (L + R), 24 h): 0.45 ug-eq/g | % Dose ([6]; Skeletal Muscle, 24 h): 0.00% | Conc. ([6]; Skeletal Muscle, 24 h): 0.11 ug-eq/g | % Dose ([6]; Skin, 24 h): 0.00% | Conc. ([6]; Skin, 24 h): 0.13 ug-eq/g | % Dose ([6]; Spinal Cord, 24 h): 0.00% | Conc. ([6]; Spinal Cord, 24 h): <LOD | % Dose ([6]; Spleen, 24 h): 0.00% | Conc. ([6]; Spleen, 24 h): 0.63 ug-eq/g | % Dose ([6]; Stomach, 24 h): 0.11% | Conc. ([6]; Stomach, 24 h): 1.92 ug-eq/g | % Dose ([6]; Testes (L + R), 24 h): 0.02% | Conc. ([6]; Testes (L + R), 24 h): 1.95 ug-eq/g | % Dose ([6]; Thyroid Gland, 24 h): 0.00% | Conc. ([6]; Thyroid Gland, 24 h): 0.30 ug-eq/g | % Dose ([6]; Total GI Tract Contents, 24 h): 5.61% | % Dose ([6]; Total Recovery, 24 h): 81.10% | % Dose ([6]; Urine, collected over 24 hr): 23.72% | % Dose ([6]; Whole Blood, 24 h): 0.00% | Conc. ([6]; Whole Blood, 24 h): 0.85 ug-eq/g | main species observed in plasma ([6]; dog, in vivo, po): the parent drug | prodrug concentration in the plasma ([6]; dog, in vivo, po): below the level of assay detection
